Measured values: article PMC5883364 (Malaria Journal, 2018)
Entries after “also recorded” stand apart in the source; their conditions may differ. Where two headings read alike, the source gives them in different places.

How the values were obtained:
[1] = test system: P. falciparum Dd2 (chloroquine-resistant, mefloquine-resistant); assay: SYBR Green I assay, IC50, strain Dd2; type: cell-based, Plasmodium falciparum; conditions: for Resistance Index RIa = IC50 (Dd2)/IC50 (3D7): Dd2 vs 3D7
Experimental: (§1) Staging and parasitaemia were determined by light microscopy of Giemsa-stained thin blood smears. Anti-malarial activity was determined using the SYBR Green I assay, as previously described.

[2] = test system: P. falciparum 3D7 (chloroquine and mefloquine sensitive); assay: SYBR Green I assay, IC50, strain 3D7; type: cell-based, Plasmodium falciparum; conditions: Plasmodium falciparum, 3D7, read-out: P. falciparum IC50 ± SD, 3D7
Experimental: as §1

[3] = test system: P. falciparum IPC5202 (artemisinin-resistant, K13 R539T); assay: SYBR Green I assay, IC50, strain IPC5202; type: cell-based, Plasmodium falciparum; conditions: for Resistance Index RIb = IC50 (IPC5202)/IC50 (3D7): IPC5202 vs 3D7; for IC50: Plasmodium falciparum, read-out: P. falciparum IC50 ± SD, IPC5202, strain IPC5202
Experimental: as §1

[4] = test system: P. falciparum IPC4912 (artemisinin-resistant, K13 I543T); assay: SYBR Green I assay, IC50, strain IPC4912; type: cell-based, Plasmodium falciparum; conditions: for Resistance Index RIc = IC50 (IPC4912)/IC50 (3D7): IPC4912 vs 3D7; for IC50: Plasmodium falciparum, read-out: P. falciparum IC50 ± SD, IPC4912
Experimental: Staging and parasitaemia were determined by light microscopy of Giemsa-stained thin blood smears. Anti-malarial activity was determined using the SYBR Green I assay, as previously described. Briefly, early ring stage parasites (> 80% of rings) were challenged with a 1:3 serial dilution of each compound, in concentrations ranging from 10,000–0.169 nM. Fluorescence intensity was measured with a multi-mode microplate reader (Triad, Dynex Technologies), with excitation and emission wavelengths of 485 and 535 nm, respectively, and analysed by nonlinear regression using GraphPad Prism to determine IC50 values.

[5] = test system: HepG2-A16 (human hepatoma) cells; conditions: for Selectivity index LD50 (HepG2)/IC50 (3D7): HepG2 vs 3D7; for Selectivity index LD50 (HepG2)/IC50 (Dd2): HepG2 vs Dd2; for Selectivity index LD50 (HepG2)/IC50 (IPC4912): HepG2 vs IPC4912; for Selectivity index LD50 (HepG2)/IC50 (IPC5202): HepG2 vs IPC5202; for LD50 HepG2: human, 48 h
Experimental: (§2) Cytotoxicity was assessed on the mammalian cell lines HepG2-A16 (human hepatoma) and V79 (Chinese hamster lung), using a MTT based assay, as previously described. […] V79 and HepG2 cell lines were incubated for 24 and 48 h, respectively (media changed at 24 h intervals). Absorbance was read at 570 nm on a multi-mode microplate reader (Triad, Dynex Technologies), to produce a log dose-dependence curve. The LD50 value for each compound was estimated by non-linear interpolation of the dose-dependence curve (GraphPad Software).

[6] = test system: V79 (Chinese hamster lung) cells; conditions: for LD50 V79: Chinese hamster, 24 h; for Selectivity index LD50 (V79)/IC50 (3D7): V79 vs 3D7; for Selectivity index LD50 (V79)/IC50 (Dd2): V79 vs Dd2; for Selectivity index LD50 (V79)/IC50 (IPC4912): V79 vs IPC4912; for Selectivity index LD50 (V79)/IC50 (IPC5202): V79 vs IPC5202
Experimental: as §2

Plasmodium berghei NK65 = assay: Peters' 4-day suppressive test in Swiss albino mice; type: in vivo; conditions: for inhibition in vivo at 50 mg/kg/day: Plasmodium berghei; for inhibition in vivo at 50 mg/kg/day / Mean parasitaemia ± SD, Day 5 / Mean parasitaemia ± SD, Day 7 / Mean parasitaemia ± SD, Day 10: mice; for inhibition in vivo at 50 mg/kg/day / Mean parasitaemia ± SD, Day 5 / Mean parasitaemia ± SD, Day 7 / Mean parasitaemia ± SD, Day 10 / in vivo outcome against P. berghei in words: 50 mg/kg/day oral for 4 days; for in vivo outcome against P. berghei in words: followed to day 10
Experimental: In vivo tests were performed following the Guidelines for Ethical Conduct in The Care and Use of Animals of the Federal University of Rio Grande do Norte—Brazil (CEUA/UFRN/46/2013). Evaluation of anti-malarial activity in vivo was carried out using the Peters’ 4-day suppressive test, with modifications, as previously described. Swiss albino mice were infected with Plasmodium berghei NK65 and randomly allocated to groups of five animals. Animals were treated with 50 mg/kg/day of each of the tested compounds (dissolved in PBS containing 1% DMSO), administrated orally, for four consecutive days. The control group was treated with a solution of PBS/1% DMSO. On days 5 (D5), 7 (D7) and 10 (D10) after parasite inoculation, tail blood smears were Giemsa-stained and examined microscopically to estimate parasitaemia. Acute toxicity testing was carried out to determine adverse effects due to compounds (including weight loss, hair appearance, skin wounds and behavioural changes), and recorded daily.

[7] = 120 h, day 5, vs control group, read-out: % inhibition of parasite growth, Day 5 (converted)
[8] = 168 h, day 7, vs control group, read-out: % inhibition of parasite growth, Day 7 (converted)
[9] = 240 h, day 10, vs control group, read-out: % inhibition of parasite growth, Day 10 (converted)

| Structure (SMILES) | Resistance Index RIb = IC50 (IPC5202)/IC50 (3D7) [3] | IC50 [3] | Resistance Index RIc = IC50 (IPC4912)/IC50 (3D7) [4] | IC50 [4] | Selectivity index LD50 (HepG2)/IC50 (3D7) [5] | Selectivity index LD50 (HepG2)/IC50 (Dd2) [5] | Selectivity index LD50 (HepG2)/IC50 (IPC4912) [5] | Selectivity index LD50 (HepG2)/IC50 (IPC5202) [5] | LD50 HepG2 [5] | LD50 V79 [6] | Selectivity index LD50 (V79)/IC50 (3D7) [6] | Selectivity index LD50 (V79)/IC50 (Dd2) [6] | Selectivity index LD50 (V79)/IC50 (IPC4912) [6] | Selectivity index LD50 (V79)/IC50 (IPC5202) [6] | inhibition in vivo at 50 mg/kg/day (Plasmodium berghei NK65; [7]) | inhibition in vivo at 50 mg/kg/day (Plasmodium berghei NK65; [8]) | inhibition in vivo at 50 mg/kg/day (Plasmodium berghei NK65; [9]) | Mean parasitaemia ± SD, Day 5 (Plasmodium berghei NK65; day 5) | Mean parasitaemia ± SD, Day 7 (Plasmodium berghei NK65; day 7) | Mean parasitaemia ± SD, Day 10 (Plasmodium berghei NK65) | also measured |
| --- | --- | --- | --- | --- | --- | --- | --- | --- | --- | --- | --- | --- | --- | --- | --- | --- | --- | --- | --- | --- | --- |
| CCN(CC)CCCC(C)Nc1ccnc2cc(Cl)ccc12 (stereo not shown) [CQ, chloroquine, reference compound] | – | – | – | – | – | – | – | – | – | – | – | – | – | – | – | – | – | – | – | – | IC50 ([1]; Plasmodium falciparum, DD2, read-out: P. falciparum IC50 ± SD, Dd2, strain Dd2): 340 ± 20.7 nM; IC50 ([1]; read-out: P. falciparum IC50 ± SD, Dd2, strain Dd2): 340 ± 20.7 nM; IC50 [2]: 15.8 ± 0.8 nM |
| CCCCNC(=O)C1CCC2(CC1)OOC1(O2)C2CC3CC(C2)CC1C3 (stereo not shown) [LC92] | 1.41 | 37.7 ± 9.9 nM | 1.31 | 34.9 ± 7.9 nM | 37453.1 | 44247.8 | 28653.3 | 26525.2 | 1.0 mM | > 1 mM | 37453.1 | 44247.8 | 28653.3 | 26525.2 | 98.3% | 87% | 86.3% | 0.02 ± 0.05% | 0.46 ± 0.60% | 0.77 ± 0.26% | mice presenting parasitaemia, day 5 (Plasmodium berghei NK65; groups of five mice, 50 mg/kg/day oral, day 5): 5 |
| Cn1nnc(N)n1 [LC126II, 2-methyl-2H-tetrazole-5-amine] | – | – | – | – | – | – | – | – | – | – | – | – | – | – | – | – | – | – | – | – | IC50 ([1]; Plasmodium falciparum, DD2, read-out: P. falciparum IC50 ± SD, Dd2): > 10000 nM; antiplasmodial activity of building blocks in words ([1]; tested separately, Dd2 and 3D7 (Additional file 1)): devoid of antiplasmodial activity; IC50 [2]: > 10000 nM |
| O=S1(=O)N=C(OCC2CCC3(CC2)OOC2(O3)C3CC4CC(C3)CC2C4)c2ccccc21 (stereo not shown) [LC129] | 0.85 | 36.4 ± 0.6 nM | 0.79 | 29.3 ± 0.7 nM | 23310.0 | 23148.1 | 29673.5 | 27502.7 | 1.0 mM | > 1 mM | 23310.0 | 23148.1 | 29673.5 | 27502.7 | 87.6% | 50.7% | 76.7% | 0.19 ± 0.12% | 1.76 ± 1.36% | 1.32 ± 1.24% | in vivo outcome against P. berghei in words (Plasmodium berghei NK65): failed to completely suppress it |
| O=S1(=O)N=C(NCC2CCC3(CC2)OOC2(O3)C3CC4CC(C3)CC2C4)c2ccccc21 (stereo not shown) [LC130] | 0.35 | 8.2 ± 1.9 nM | 0.10 | 2.4 ± 1.6 nM | 42918.4 | 40322.6 | 416666.6 | 121951.2 | 1.0 mM | > 1 mM | 42918.4 | 40322.6 | 416666.6 | 121951.2 | 100% | 60.8% | 76.7% | 0% | 1.4 ± 0.94% | 1.32 ± 0.24% | in vivo outcome against P. berghei in words (Plasmodium berghei NK65): recrudescence occurred on day 7; mice parasitemic, day 7 (Plasmodium berghei NK65; groups of five mice, 50 mg/kg/day oral, day 7): 2/5 |
| Cn1nnc(NCC2CCC3(CC2)OOC2(O3)C3CC4CC(C3)CC2C4)n1 (stereo not shown) [LC131] | 1.17 | 3.4 ± 2.1 nM | 1.66 | 4.8 ± 1.2 nM | 344827.5 | 476190.5 | 208333.3 | 294117.6 | 1.0 mM | > 1 mM | 344827.5 | 476190.5 | 208333.3 | 294117.6 | 100% | 100% | 100% | 0% | 0% | 0% | in vivo outcome against P. berghei in words (Plasmodium berghei NK65): complete suppression of parasitaemia; also recorded: total suppression of parasitaemia from day 5 to day 10; also recorded: totally suppressed P. berghei parasitaemia |
| c1ccc(-n2nnnc2OCC2CCC3(CC2)OOC2(O3)C3CC4CC(C3)CC2C4)cc1 (stereo not shown) [LC132] | 1.03 | 25 ± 7.4 nM | 0.81 | 19.7 ± 3.4 nM | 41322.3 | 37596.9 | – | 40000.0 | 1.0 mM | > 1 mM | 41322.3 | 37596.9 | 50761.4 | 40000.0 | 100% | 100% | 94.5% | 0% | 0% | 0.31 ± 0.10% | Resistance Index RIa = IC50 (Dd2)/IC50 (3D7) [1]: 1.1; times less active than LC131 or LC136 ([1]; in vitro, strain not stated): up to 12; in vivo outcome against P. berghei in words (Plasmodium berghei NK65): recrudescence also occurred on day 10; also recorded: allowed recrudescence on day 10 |
| C1C2CC3CC1CC(C2)C31OOC2(CCC(Nc3nnn[nH]3)CC2)O1 (stereo not shown) [LC136] | 2.18 | 6.1 ± 1.9 nM | 2.43 | 6.8 ± 2.3 nM | 357142.8 | 400000.0 | 147058.8 | 163934.4 | 1.0 mM | > 1 mM | 357142.8 | 400000.0 | 147058.8 | 163934.4 | 100% | 100% | 100% | 0% | 0% | 0% | in vivo outcome against P. berghei in words (Plasmodium berghei NK65): complete suppression of parasitaemia; also recorded: total suppression of parasitaemia from day 5 to day 10; also recorded: totally suppressed P. berghei parasitaemia |
| CC(C)(C)OC(=O)NCCCCNC1CCC2(CC1)OOC1(O2)C2CC3CC(C2)CC1C3 (stereo not shown) [MIS14] | – | 413 ± 20.2 nM | – | 390 ± 17.8 nM | 8439.9 | 7399.1 | 847.2 | 798.8 | 0.3 mM | > 1 mM | 25575.4 | 22421.5 | 2567.4 | 2420.7 | – | – | – | – | – | – | Resistance Index RIa = IC50 (Dd2)/IC50 (3D7) [1]: 1.1; decrease in HepG2 survival ([5]; maximum dose of 1 mM): ~30% |
